Assay results from patent US20230103444A1 (The Regents of the University of Colorado, a Body Corporate, priority 2020, published 2023).
Like-named read-outs stand apart in the source and are kept apart here.

Tests used:
cat-CHD1L ATPase = molecular target: T1, cat-CHD1L ATPase (Homo sapiens, UniProt Q86WJ1); assay: CHD1L ATPase assay with recombinant catalytic domain (cat-CHD1L); format: biochemical; conditions: for inhibition at 20 µM: confirmed HTS hits, HTS at 20 μM, read-out: inhibition against cat-CHD1L ATPase
T1 construct: inferred from Ni-NTA / imidazole purification; made in house; host or cells: E. coli Rosetta 2 (DE3) pLysS; constructs were a gift from Helena Berglund, Karolinska Institute
T1 sequence (Q86WJ1 16-611 limits assumed): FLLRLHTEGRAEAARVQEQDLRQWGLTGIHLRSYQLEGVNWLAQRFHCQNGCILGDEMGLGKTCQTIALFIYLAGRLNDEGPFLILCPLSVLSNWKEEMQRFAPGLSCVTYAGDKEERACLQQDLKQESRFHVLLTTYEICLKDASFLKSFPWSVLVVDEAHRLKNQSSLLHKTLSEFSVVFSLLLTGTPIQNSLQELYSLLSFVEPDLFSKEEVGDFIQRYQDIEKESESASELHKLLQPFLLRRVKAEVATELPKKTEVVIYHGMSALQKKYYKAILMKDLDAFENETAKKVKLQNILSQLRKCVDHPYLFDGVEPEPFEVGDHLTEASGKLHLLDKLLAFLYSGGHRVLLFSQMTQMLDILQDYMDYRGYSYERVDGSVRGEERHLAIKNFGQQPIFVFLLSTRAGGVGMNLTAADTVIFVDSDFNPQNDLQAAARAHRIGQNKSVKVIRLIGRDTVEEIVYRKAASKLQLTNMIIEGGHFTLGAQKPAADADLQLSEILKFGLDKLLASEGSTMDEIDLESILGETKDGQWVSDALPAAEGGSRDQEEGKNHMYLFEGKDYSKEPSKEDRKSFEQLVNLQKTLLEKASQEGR
Protocol: All reactions were carried out using low volume non-binding surface 384-well plates (Corning Inc., Corning N.Y.). cat-CHD1L or fl-CHD1L (100 nM) and 200 nM c-Myc DNA or mononucelosome (Active Motif, Carlsbad, Calif.) were added to a buffer containing 50 mM Tris pH 7.5, 50 mM NaCl, 1 mM DTT, 5% glycerol, and the reaction was initiated by the addition of 10 μM ATP (New England Biolabs, Ipswich, Mass.) to a total volume of 10 μL and incubated at 37° C. for 1 h. ATPase activity was assayed by adding 500 nM of Phosphate Sensor (Life Technologies, Carlsbad, Calif.), containing labeled phosphate-binding protein, specifically labeled with the fluorophore MDCC, and measuring excitation (430 nm) and emission (450 nm) immediately on an EnVision® plate reader (PerkinElmer, Hopkinton, Mass.). An inorganic phosphate standard curve was used to convert the fluorescence to [Pi], and enzyme kinetics were determined using Prism8 (GraphPad Software, San Diego, Calif.).
Assay composition was the same as described above using cat-CHD1L, except that the reaction mixture volume was modified to accommodate addition of drug or DMSO. Using a Janus® liquid handler (PerkinElmer, Hopkinton, Mass.), a selected amount of compounds dissolved in 100% DMSO were mixed with 50 mM Tris pH 7.5, 50 mM NaCl, 1 mM DTT, 5% glycerol buffer to 200 μM in 10% DMSO. […] The negative control used was 1% DMSO and 10 mM EDTA was used as a positive control. Reactions were initiated with the addition of 10 μM ATP and incubated at 37° C. for 1 h. ATPase activity was measured by fluorescence by adding 500 nM Phosphate Sensor. cat-CHD1L was screened against a 20,000-compound diversity set from Life Chemicals (Woodbridge, Conn.) and a Kinase Inhibitor library from Selleck Chemicals (Houston, Tex.).
CHD1L Enzyme ATPase Assay. […] All reactions were carried out using low volume nonbinding surface 384-well plates (Corning Inc., Corning, N.Y.). […] The reaction was initiated by the addition of 10 μmol/L ATP (New England Biolabs, Ipswich, Mass.) to a total volume of 10 μL and incubated at 37° C. for 1 hour. ATPase activity was measured by adding 500 nmol/L of Phosphate Sensor (ThermoFisher, Waltham, Mass.) measuring excitation (430 nm) and emission (450 nm) immediately on an Envision plate reader (PerkinElmer, Waltham, Mass.). Background signal was determined by using all assay components excluding the enzyme.

TCF-transcription = assay: TOPflash TCF-transcriptional reporter assay; format: cell-based, human; conditions: TOPflash reporter in CRC cell lines (SW620, HCT116, DLD1CHD1L-OE), 24 h
Protocol: TOPflash assay (Millipore, Billerica, Mass.) was used to evaluate TCF transcriptional activity in CRC cells. A total of 20,000 cells per well were plated into 96-well white plates and transfected with TransIT®-LT1 transfection reagent (Mirus, Madison, Wis.). Cells were incubated with transfection mix for 24 h. Next, cells were washed with phosphate-buffered solution (PBS) and a 1:1 ratio of PBS:ONE-Glo™ luciferase reagent Promega (Madison, Wis.) was added and the luminescence was detected within 10 min. A duplicate experiment was conducted to measure cell viability using CellTiter-Glo® Luminescent Cell Viability Assay (Promega, Madison, Wis.), which was used to normalize TOPflash luminescence to obtain the fold change in TCF activity. Experiments were replicated 2× (n=3 for each experiment).
TCF-transcriptional Reporter Assay. […] Afterwards, cells from the white solid bottom plate were carefully washed with PBS and a 1:1 ratio of PBS:One-Glo Luciferase Assay System (Promega) was added, incubated for 10 min, and luminescence was quantified on Envision plate reader (PerkinElmer) for TCF-activity. As a control, cells from the clear plate were lysed with Mammalian Cell Lysis Buffer (Promega) and the total protein from each well was quantified with BCA assay (ThermoFisher).

[1] = system: E-cadherin promoter activity; assay: EcadPro-RFP reporter 3D high-content imaging in tumor organoids; format: cell-based; conditions: 72 h
Protocol: (§1) After validating hits 5-7 against CHD1L mediated TCF transcription, the ability of these compounds to reverse EMT and other malignant properties in CRC were evaluated. E-cadherin and vimentin are putative biomarkers for the epithelial and mesenchymal phenotypes, respectively. [McDonald et al., 2015] Loss of E-cadherin and gain of vimentin are also clinical biomarkers of poor prognosis. [Yun et al., 2014; Richardson et al., 2012; Dhanasekaran et al., 2001; Kashiwagi et al., 2010; Toiyama et al., 2013] Accordingly, lentiviral promoter driven reporters for E-cadherin (pCDH1-EcadPro-RFP) and vimentin (pCDH1-VimPro-GFP) were developed, which faithfully report E-cadherin and vimentin protein expression, respectively. [Zhou et al., 2016; Abraham et al., 2019] SW620 cells transduced with either EcadPro-RFP or VimPro-GFP were cultured as tumor organoids for 72 h, reaching a diameter of 600 μm. Tumor organoids were treated with compounds 5-7 for an additional 72 h to determine the effective concentration 50 percent (EC50) for modulating promoter activity. Changes in promoter expression was quantified using a 3D confocal image […] based high-content analysis algorithm (FIG. 2A-2B). [Zhou et al., 2016; Abraham et al., 2019]
CHD1L has been reported to confer anti-apoptotic activity by inhibiting activation of caspase-dependent apoptosis. [Li et al., 2013; Sun et al., 2016] Additionally, reversal or inhibition of EMT is known to restore apoptotic activity of cancer cells. [Lu et al., 2014] To determine if CHD1L inhibitors reverse EMT prior to induction of cell death, E-cadherin expression by EcadPro-RFP reporter activity was monitored and cytotoxicity was measured using the CellTox™ Green assay. Cells were treated with CHD1L inhibitors for 72 h and imaged every 2 h.
(§2) Stable VimPro-GFP or EcadPro-RFP SW620 reporter cells were generated using pCDH imPro-GFP-EF1-puro virus or pCDH-EcadPro-mCherry-EF1-puro virus as previously reported. [Zhou et al., 2016; Abraham et al., 2019] The stable fluorescently labeled reporter cells were used to generate tumor organoids as described herein. Tumor organoids were treated with CHD1L inhibitors at 10 μM for an additional 72 h. Following treatment, tumor organoids were stained with 16 μM of Hoechst 33342 for 1 h (nuclei stain). Images were taken with a 5× air objective. Z-stacks were set at 26.5 μm apart for a total of 15 optical slices. Imaging and high-content analysis were performed using an Opera Phenix™ and Harmony® software (PerkinElmer, Hopkinton, Mass.). Nuclei were identified within each layer and cells were found with either GFP or mCherry channel. The fluorescence intensities of each channel were calculated and thresholds were set based on the background intensities. Percentages of GFP or mCherry RFP positive cells were calculated and normalized to the DMSO treated group.
3D High-Content Imaging and Analysis of EMT Dual-Reporter Activity. Tumor organoids were imaged using the Opera Phenix high-content screening system (PerkinElmer) in confocal mode utilizing a 10× air objective (NA 0.3). The following excitation and emission (Ex/Em) wavelengths were employed: RFP (561/570-630) and GFP (488/500-550). Organoids were also imaged in Brightfield to segment and perform high-content analysis of dual reporter specific fluorescence intensity. RFP fluorescent signal correlates with E-Cadherin promoter activity, while GFP fluorescent signal is correlates with vimentin promoter activity. Both fluorescent signals were quantified and normalized as previously described. (Esquer, et al., 2021)

[2] = system: vimentin promoter activity; assay: VimPro-GFP reporter 3D high-content imaging in tumor organoids; format: cell-based, human; conditions: 72 h
Protocol: as §1, §2
3D High-Content Imaging and Analysis of EMT Dual-Reporter Activity. Tumor organoids were imaged using the Opera Phenix high-content screening system (PerkinElmer) in confocal mode utilizing a 10× air objective (NA 0.3). […] Organoids were also imaged in Brightfield to segment and perform high-content analysis of dual reporter specific fluorescence intensity. […] Both fluorescent signals were quantified and normalized as previously described. […]

SW620 tumor organoids = assay: Tumor organoid cytotoxicity (CellTiter-Glo 3D); conditions: Homo sapiens
[3] = Mouse liver microsome stability; conditions: CD-1, mouse, liver microsomes, pH 7.4, Microsomal stability Mouse t1/2 (min), Table 6
Protocol: Microsome stability. CD-1 mouse microsomes were commercially purchased and the reactions were performed as previously described. […] The master mix was pre-incubated at 37° C. for 5 min, then 1 mM NADPH was added to start the microsomal activity reaction and maintained at 37° C. throughout the time course. Reactions were stopped at 0, 5, 15, 30, 45, and 60 min by adding 200 μL acetonitrile and analyzed by mass spectrometry. The appropriate microsome controls were also performed in the same reaction conditions.

HCT116 tumor organoids = assay: Tumor organoid cytotoxicity (CellTiter-Glo 3D); format: cell-based, human; conditions: Homo sapiens
Protocol: Cell based cytotoxicity dose response and combination studies. […] Plates were then incubated for 3 days before treatment.
Cell Line Tumor Organoid Culture.
Tumor Organoid Cytotoxicity.

[4] = Human microsomal stability; format: in vitro ADME; conditions: human microsomes, Table 6, read-out: Microsomal stability Human t1/2
[5] = units given with the values (nM, μM), read-out: activity in dose response studies against cat-CHD1L ATPase (IC50, FIG. 1A)
[6] = SW620 or HCT116 tumor organoids
[7] = SW-620, read-out: IC50 of cytotoxicity in SW620 cells
[8] = HCT-116, 72 h, Table 6, read-out: 3 D Cytotoxicity 72 hr IC50 (μM) HCT116
[9] = HCT-116, single agent, Table 4A, read-out: Tumor Organoid Cytotoxicity IC50 (μM) HCT116
[10] = SW-620, 72 h, read-out: 3 D Cytotoxicity 72 hr IC50 (μM) SW620
[11] = Table 6, read-out: cat-CHD1L inhibition IC50

Structure (SMILES)	IC50 (SW620 tumor organoids; [7]) [µM]	half-life at 10 μM [3] [min]	IC50 (HCT116 tumor organoids; [8]) [µM]	IC50 (SW620 tumor organoids; [10]) [µM]	half-life [4] [min]	IC50 (cat-CHD1L ATPase; [11]) [nM]	other results
CCc1nnc(NS(=O)(=O)c2ccc(NC(=O)c3nc4ccccc4s3)cc2)s1 [Compound 4]	–	–	–	–	–	–	inhibition at 20 µM (cat-CHD1L ATPase): > 50%; IC50 (cat-CHD1L ATPase; [5]): 900 to 5000 nM; inhibition of TCF-transcription, in words (TCF-transcription): modest activity in cells with no dose dependent inhibition
Cc1cc(Nc2ccc(NC(=O)Cc3c[nH]c4ccccc34)cc2)nc(N2CCCC2)n1 [Compound 6.5, 2-(1H-indol-3-yl)-N-(4-((6-methyl-2-(pyrrolidin-1-yl)pyrimidin-4-yl)amino)phenyl)acetamide]	< 10	70.2	2.2	–	–	–	upregulation of E-cadherin promoter activity (EcadPro-RFP), in words [1, 6]: upregulation of EcadPro-RFP; downregulation of vimentin promoter activity (VimPro-GFP), in words [2, 6]: marked down-regulation of the VimPro-GFP; IC50 (HCT116 tumor organoids; [9]): 2.2 µM
Cc1cc(Nc2ccc(NC(=O)Cc3c[nH]c4cc(Cl)ccc34)cc2)nc(N2CCCC2)n1 [Compound 6.18, 2-(6-chloro-1H-indol-3-yl)-N-(4-((6-methyl-2-(pyrrolidin-1-yl)pyrimidin-4-yl)amino)phenyl)acetamide]	< 10	141	3	1.5	88.1	–	IC50 (SW620 tumor organoids; SW-620, read-out: Tumor Organoid Cytotoxicity IC50 (μM) SW620): 1.4 µM; IC50 (HCT116 tumor organoids; [9]): 2.95 µM
Cc1cc(NCc2ccc(NC(=O)Cc3cc(Br)cs3)cc2)nc(N2CCCC2)n1 [Compound 6.33]	< 10	76	11.6	4	38.2	300	CHD1L enzyme inhibition, in words (cat-CHD1L ATPase; recombinant cat-CHD1L): good enzyme inhibition
Cc1cc(Nc2ccc(NC(=O)Cc3ccco3)cc2)nc(N2CCCC2)n1 [Compound 6.39]	–	70.5	10.8	14.2	88.6	> 20000	–
Cc1cc(N2CCCC2)nc(NCc2ccc(NC(=O)Cc3cc(Br)cs3)cc2)n1 [Compound 6.41]	–	62	21.3	13.5	171	500	–
Cc1ccc(Nc2nc(N3CCN(CCO)CC3)nc3nccnc23)cc1Cl [Compound 7]	–	–	–	–	–	–	EC50 ([1]; Homo sapiens, SW-620, read-out: EC50 upregulation of E-cadherin promoter activity, SW620 tumor organoids): 28 ± 0.003 µM; inhibition at 20 µM (cat-CHD1L ATPase): > 50%; IC50 (cat-CHD1L ATPase; [5]): 900 to 5000 nM; EC50 ([2]; Homo sapiens, SW-620, read-out: EC50 downregulation of vimentin promoter activity, SW620 tumor organoids): 12.8 ± 1.3 µM
